The values below come from ChEMBL document CHEMBL1770126, “Molecular probes for the A2A adenosine receptor based on a pyrazolo[4,3-e][1,2,4]triazolo[1,5-c]pyrimidin-5-amine scaffold” (Bioorg Med Chem Lett, 2011).

Common to all, as to format: cell-based
The target in test [1] is T1, Adenosine receptor A1 (Homo sapiens, UniProt P30542).
T1 sequence (P30542 whole entry): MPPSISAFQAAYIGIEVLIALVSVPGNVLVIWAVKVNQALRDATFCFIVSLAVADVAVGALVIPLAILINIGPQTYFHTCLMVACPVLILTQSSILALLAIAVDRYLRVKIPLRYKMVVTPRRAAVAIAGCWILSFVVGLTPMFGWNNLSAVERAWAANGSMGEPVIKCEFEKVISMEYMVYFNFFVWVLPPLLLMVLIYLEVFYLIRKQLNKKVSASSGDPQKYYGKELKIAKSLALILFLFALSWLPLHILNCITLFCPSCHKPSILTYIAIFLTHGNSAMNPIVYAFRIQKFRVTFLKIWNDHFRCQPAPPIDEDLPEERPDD
Briefly: Displacement of [3H]DPCPX from human recombinant adenosine A1 receptor expressed in CHO cells after 60 mins by liquid scintillation counting.

Test [2] has as its target T2, Adenosine receptor A3 (Homo sapiens, UniProt P0DMS8).
T2 sequence (P0DMS8 whole entry): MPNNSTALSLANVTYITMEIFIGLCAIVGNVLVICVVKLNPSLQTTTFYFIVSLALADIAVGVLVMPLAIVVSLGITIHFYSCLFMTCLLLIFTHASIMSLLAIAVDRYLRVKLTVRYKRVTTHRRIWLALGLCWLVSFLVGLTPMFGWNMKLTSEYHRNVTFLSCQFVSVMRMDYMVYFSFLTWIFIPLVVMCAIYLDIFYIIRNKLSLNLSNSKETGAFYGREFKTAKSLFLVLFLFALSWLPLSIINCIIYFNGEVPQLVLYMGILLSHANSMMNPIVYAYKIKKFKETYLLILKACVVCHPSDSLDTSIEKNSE
Briefly: Displacement of [125I]I-AB-MECA from human recombinant adenosine A3 receptor expressed in CHO cells after 60 mins by gamma scintillation counting.

For test [3], the target named is Adenosine receptor A2a (Homo sapiens, UniProt P29274). Description: Displacement of [3H]CGS21680 from human recombinant adenosine A2A receptor expressed in HEK293 cells after 60 mins by liquid scintillation counting.
Chain of Adenosine receptor A2a (P29274 whole entry): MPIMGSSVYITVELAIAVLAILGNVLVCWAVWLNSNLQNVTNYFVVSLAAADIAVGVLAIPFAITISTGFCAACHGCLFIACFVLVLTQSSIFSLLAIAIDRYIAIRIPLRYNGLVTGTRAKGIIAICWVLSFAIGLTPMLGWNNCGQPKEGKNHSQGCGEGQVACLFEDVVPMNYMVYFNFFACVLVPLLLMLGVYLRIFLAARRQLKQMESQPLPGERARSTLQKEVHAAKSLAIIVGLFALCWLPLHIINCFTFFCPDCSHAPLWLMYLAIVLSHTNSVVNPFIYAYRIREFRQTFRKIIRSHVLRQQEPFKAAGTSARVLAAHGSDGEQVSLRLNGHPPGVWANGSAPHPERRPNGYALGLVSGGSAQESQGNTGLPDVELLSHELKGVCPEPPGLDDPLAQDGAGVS
Test [4] deals with T3, Adenosine receptor A1 (Homo sapiens) (UniProt P30542).
T3 sequence (whole entry): T1 sequence (P30542 whole entry)
Briefly: Displacement of [3H]DPCPX from human recombinant adenosine A1 receptor expressed in CHO cells at 10 uM after 60 mins by liquid scintillation counting.

Test [5] addresses T4, Adenosine receptor A3 (Homo sapiens) (UniProt P0DMS8).
T4 sequence (whole entry): T2 sequence (P0DMS8 whole entry)
Description: Displacement of [125I]I-AB-MECA from human recombinant adenosine A3 receptor expressed in CHO cells at 10 uM after 60 mins by gamma scintillation counting.

Molecules are shown by their SMILES.

As to `NCCNC(=O)COc1ccc(CCCn2ncc3c2nc(N)n2nc(-c4ccco4)nc32)cc1`, the inhibition constant Ki in test [1] turned out to be 1270 nM; in test [2] it was 3970 nM; in test [3] it was 6.8 nM.
For `COc1ccc(CCCn2ncc3c2nc(N)n2nc(-c4ccco4)nc32)cc1`, the inhibition in test [4] is 35%.
As for `Nc1nc2c(cnn2CCCc2ccc(OCC(=O)NCCNCCNC(=O)CCCCCNC(=O)COc3ccc(/C=C/C4=[N+]5C(=Cc6ccc(-c7ccc[nH]7)n6[B-]5(F)F)C=C4)cc3)cc2)c2nc(-c3ccco3)nn12`, in test [5], the inhibition is 28%. For the same compound, in test [3], the inhibition constant Ki was 15.1 nM.
As to `CN(C)c1ccc2c(-c3ccc(C(=O)NCCNC(=O)COc4ccc(CCCn5ncc6c5nc(N)n5nc(-c7ccco7)nc65)cc4)cc3C(=O)[O-])c3ccc(=[N+](C)C)cc-3oc2c1`, the inhibition was 24% in test [5] and 7% in test [4]. Moreover, the Ki in test [3] was determined as 357 nM.
Take `Nc1nc2c(cnn2CCCc2ccc(OCC(=O)O)cc2)c2nc(-c3ccco3)nn12`: the inhibition constant (Ki) was 1700 nM in test [1] and 10.2 nM in test [3]. For the same compound, in test [5], the inhibition was 29%.
As for `N=c1ccc2c(-c3ccc(C(=O)NCCNC(=O)COc4ccc(CCCn5ncc6c5nc(N)n5nc(-c7ccco7)nc65)cc4)cc3C(=O)O)c3ccc(N)c(S(=O)(=O)O)c3oc-2c1S(=O)(=O)O`, the inhibition in test [5] came to 4%; in test [4], 20%. For the same compound, in test [3], the Ki came to 111 nM.
For the compound `COC(=O)COc1ccc(CCCn2ncc3c2nc(N)n2nc(-c4ccco4)nc32)cc1`, the Ki in test [1] is 4840 nM; in test [3], 96 nM. The inhibition in test [5] was 50%.
`NCCNCCNC(=O)COc1ccc(CCCn2ncc3c2nc(N)n2nc(-c4ccco4)nc32)cc1`: the figures for the inhibition constant (Ki) in test [2] and in test [3] were 3290 nM and 10.7 nM, respectively. Further, in test [4], the inhibition is 20%.
With `C#CCCCCC(=O)NCCNC(=O)COc1ccc(CCCn2ncc3c2nc(N)n2nc(-c4ccco4)nc32)cc1`, the inhibitory constant (Ki) worked out at 1100 nM in test [1], 1280 nM in test [2] and 75.4 nM in test [3].
Consider `CC(=O)NCCn1cc(CCCCC(=O)NCCNC(=O)COc2ccc(CCCn3ncc4c3nc(N)n3nc(-c5ccco5)nc43)cc2)nn1`, for which the values for the Ki in test [1], in test [2] and in test [3] were 1700 nM, 302 nM and 220 nM, respectively.
With `Nc1nc2c(cnn2CCCc2ccc(O)cc2)c2nc(-c3ccco3)nn12`, in test [1], the Ki is 4440 nM.
Consider `Nc1nc2c(cnn2CCCc2ccc(OCCCF)cc2)c2nc(-c3ccco3)nn12`, for which the Ki in test [1] came out at 1000 nM; in test [2], 1320 nM; in test [3], 53.6 nM.
